Test results published in PubChem BioAssay AID2060890 (Molecular Pharmacology Branch, DTP, NCI, 2025).
Several values for one entry are separate records, joined by “and”; a condition that tells them apart may be missing. Equal values may be shown once. Blank lines part the entries; values can stand above or below the molecule they belong to.

System: LG0703-F948-PDC complex spheroid viability
Test: Anticancer human tumor LG0703-F948-PDC patient-derived lung adenocarcinoma cell line growth inhibition [RAS]
Details: for viability, T/C: stronger effect = lower value
In short: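 Tumour cells grown as complex spheroids with HUVEC endothelial cells and mesenchymal stem cells, treated with RAS pathway inhibitor combinations. Each agent spans half-log steps from near clinical Cmax, or 10 microM where Cmax is unknown.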
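Also: spheroids exposed to agents for 7 days.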
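For viability, T/C in this document: 100% = DMSO vehicle wells.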

IC50 (curve of first compound, second compound 0.000949 µM): 1.53 nM
IC50 (curve of first compound, second compound 0.003 µM): 0.429 nM
IC50 (curve of first compound, second compound 0.00949 µM): < 0.316 nM
IC50 (curve of first compound, second compound 0.03 µM): < 0.316 nM
IC50 (curve of first compound, second compound 0.0949 µM): < 0.316 nM
IC50 (curve of first compound, second compound 0.3 µM): < 0.316 nM
Structure (SMILES): CC(C)n1nc(-c2ccc3oc(N)nc3c2)c2c(N)ncnc21 + CCn1c(-c2cc(N3CCN(C)CC3)cnc2C(C)OC)c2c3cc(ccc31)-c1csc(n1)CC(NC(=O)C1CC1C)C(=O)N1CCCC(N1)C(=O)OCC(C)(C)C2
viability, T/C (second compound 0.000949 µM, first compound 0.000316 µM): 66.8%
viability, T/C (second compound 0.000949 µM, first compound 0.001 µM): 56.5%
viability, T/C (second compound 0.000949 µM, first compound 0.00316 µM): 38.5%
viability, T/C (second compound 0.000949 µM, first compound 0.01 µM): 30.5%
viability, T/C (second compound 0.000949 µM, first compound 0.0316 µM): 12.7%
viability, T/C (second compound 0.000949 µM, first compound 0.1 µM): 5.51%
viability, T/C (second compound 0.003 µM, first compound 0.000316 µM): 55.5%
viability, T/C (second compound 0.003 µM, first compound 0.001 µM): 34.8%
viability, T/C (second compound 0.003 µM, first compound 0.00316 µM): 29.7%
viability, T/C (second compound 0.003 µM, first compound 0.01 µM): 13.1%
viability, T/C (second compound 0.003 µM, first compound 0.0316 µM): 8.23%
viability, T/C (second compound 0.003 µM, first compound 0.1 µM): 3.1%
viability, T/C (second compound 0.00949 µM, first compound 0.000316 µM): 31.1%
viability, T/C (second compound 0.00949 µM, first compound 0.001 µM): 20.7%
viability, T/C (second compound 0.00949 µM, first compound 0.00316 µM): 12.6%
viability, T/C (second compound 0.00949 µM, first compound 0.01 µM): 6.99%
viability, T/C (second compound 0.00949 µM, first compound 0.0316 µM): 4.36%
viability, T/C (second compound 0.00949 µM, first compound 0.1 µM): 2.06%
viability, T/C (second compound 0.03 µM, first compound 0.000316 µM): 12.7%
viability, T/C (second compound 0.03 µM, first compound 0.001 µM): 13.1%
viability, T/C (second compound 0.03 µM, first compound 0.00316 µM): 6.11%
viability, T/C (second compound 0.03 µM, first compound 0.01 µM): 5.4%
viability, T/C (second compound 0.03 µM, first compound 0.0316 µM): 2.59%
viability, T/C (second compound 0.03 µM, first compound 0.1 µM): 1.58%
viability, T/C (second compound 0.0949 µM, first compound 0.000316 µM): 12.9%
viability, T/C (second compound 0.0949 µM, first compound 0.001 µM): 8.35%
viability, T/C (second compound 0.0949 µM, first compound 0.00316 µM): 6.05%
viability, T/C (second compound 0.0949 µM, first compound 0.01 µM): 3.05%
viability, T/C (second compound 0.0949 µM, first compound 0.0316 µM): 1.82%
viability, T/C (second compound 0.0949 µM, first compound 0.1 µM): 1.05%
viability, T/C (second compound 0.3 µM, first compound 0.000316 µM): 10.7%
viability, T/C (second compound 0.3 µM, first compound 0.001 µM): 7.72%
viability, T/C (second compound 0.3 µM, first compound 0.00316 µM): 4.76%
viability, T/C (second compound 0.3 µM, first compound 0.01 µM): 3.02%
viability, T/C (second compound 0.3 µM, first compound 0.0316 µM): 1.64%
viability, T/C (second compound 0.3 µM, first compound 0.1 µM): 0.76%

IC50 (curve of first compound, second compound 0.0316 µM): 38.2 nM
IC50 (curve of first compound, second compound 0.1 µM): 35.9 nM
IC50 (curve of first compound, second compound 0.316 µM): 47.6 nM
IC50 (curve of first compound, second compound 1 µM): 34.9 nM
IC50 (curve of first compound, second compound 3.16 µM): 32.2 nM
IC50 (curve of first compound, second compound 10 µM): < 0.949 nM
Structure (SMILES): CCc1c2c(nc3ccc(O)cc13)-c1cc3c(c(=O)n1C2)COC(=O)[C@]3(O)CC + C#Cc1c(F)ccc2cc(O)cc(-c3ncc4c(N5CC6CCC(C5)N6)nc(OCC56CCCN5CC(F)C6)nc4c3F)c12
viability, T/C (second compound 0.0316 µM, first compound 0.000949 µM): 98.4%
viability, T/C (second compound 0.0316 µM, first compound 0.003 µM): 90.5%
viability, T/C (second compound 0.0316 µM, first compound 0.00949 µM): 72.3%
viability, T/C (second compound 0.0316 µM, first compound 0.03 µM): 48.3%
viability, T/C (second compound 0.0316 µM, first compound 0.0949 µM): 41.7%
viability, T/C (second compound 0.0316 µM, first compound 0.3 µM): 19.7%
viability, T/C (second compound 0.1 µM, first compound 0.000949 µM): 92.4%
viability, T/C (second compound 0.1 µM, first compound 0.003 µM): 91.1%
viability, T/C (second compound 0.1 µM, first compound 0.00949 µM): 77.6%
viability, T/C (second compound 0.1 µM, first compound 0.03 µM): 49.8%
viability, T/C (second compound 0.1 µM, first compound 0.0949 µM): 36.4%
viability, T/C (second compound 0.1 µM, first compound 0.3 µM): 20.1%
viability, T/C (second compound 0.316 µM, first compound 0.000949 µM): 85.3%
viability, T/C (second compound 0.316 µM, first compound 0.003 µM): 77.7%
viability, T/C (second compound 0.316 µM, first compound 0.00949 µM): 81.5%
viability, T/C (second compound 0.316 µM, first compound 0.03 µM): 51.7%
viability, T/C (second compound 0.316 µM, first compound 0.0949 µM): 41.4%
viability, T/C (second compound 0.316 µM, first compound 0.3 µM): 20.2%
viability, T/C (second compound 1 µM, first compound 0.000949 µM): 65.5%
viability, T/C (second compound 1 µM, first compound 0.003 µM): 61.7%
viability, T/C (second compound 1 µM, first compound 0.00949 µM): 61.7%
viability, T/C (second compound 1 µM, first compound 0.03 µM): 50.9%
viability, T/C (second compound 1 µM, first compound 0.0949 µM): 38.4%
viability, T/C (second compound 1 µM, first compound 0.3 µM): 25.3%
viability, T/C (second compound 3.16 µM, first compound 0.000949 µM): 58.5%
viability, T/C (second compound 3.16 µM, first compound 0.003 µM): 60.3%
viability, T/C (second compound 3.16 µM, first compound 0.00949 µM): 50.3%
viability, T/C (second compound 3.16 µM, first compound 0.03 µM): 52.7%
viability, T/C (second compound 3.16 µM, first compound 0.0949 µM): 30.4%
viability, T/C (second compound 3.16 µM, first compound 0.3 µM): 17%
viability, T/C (second compound 10 µM, first compound 0.000949 µM): 41%
viability, T/C (second compound 10 µM, first compound 0.003 µM): 49.4%
viability, T/C (second compound 10 µM, first compound 0.00949 µM): 46.9%
viability, T/C (second compound 10 µM, first compound 0.03 µM): 33.9%
viability, T/C (second compound 10 µM, first compound 0.0949 µM): 30.4%
viability, T/C (second compound 10 µM, first compound 0.3 µM): 15.7%

IC50 (curve of compound): 348 nM and 399 nM and 337 nM
Structure (SMILES): Cc1nc(N2CCC3(CC2)COC(C)C3N)c(CO)nc1Sc1ccnc(N)c1Cl (stereo not drawn)
viability, T/C (compound 0.0316 µM): 91.6% and 86.5% and 84.2%
viability, T/C (compound 0.1 µM): 68.1% and 83.2% and 66.4%
viability, T/C (compound 0.316 µM): 50.8% and 48.3% and 51.7%
viability, T/C (compound 1 µM): 36.9% and 35.6% and 34.5%
viability, T/C (compound 3.16 µM): 22% and 21.2% and 25.2%
viability, T/C (compound 10 µM): 11.4% and 12.8% and 12.1%

IC50 (curve of compound): > 1000 nM
Structure (SMILES): CCN1CCN(Cc2ccc(Nc3ncc(F)c(-c4cc(F)c5nc(C)n(C(C)C)c5c4)n3)nc2)CC1
viability, T/C (compound 0.00316 µM): 110% and 103% (2×) and 94.4%
viability, T/C (compound 0.01 µM): 91.3% [middle of 4 runs]
viability, T/C (compound 0.0316 µM): 84.7% [middle of 4 runs]
viability, T/C (compound 0.1 µM): 85.1% [middle of 4 runs]
viability, T/C (compound 0.316 µM): 92.1% [middle of 4 runs]
viability, T/C (compound 1 µM): 83.4% [middle of 4 runs]
